Experimental data as given in patent publication US10711006B2, “Selective Bruton's tyrosine kinase inhibitor and use thereof” (HANGZHOU HERTZ PHARMACEUTICAL CO., LTD., priority 2016, dated 2020).
Blank lines part the entries; values can stand above or below the compound they belong to.

What was measured:
[1] = test system: human mantle cell lymphoma (MINO); experiment: In-vitro tumor cell proliferation inhibition (CCK-8), MINO; settings: 72 h, read-out: Tumor cell proliferation inhibitory activity (IC50, μM) MINO
[2] = test system: human lung cancer cell (A549); experiment: In-vitro tumor cell proliferation inhibition (CCK-8), A549; settings: A549, 72 h, read-out: Tumor cell proliferation inhibitory activity (IC50, μM) A549
[3] = test system: diffuse giant B-cell lymphoma (OCI-LY10); experiment: In-vitro tumor cell proliferation inhibition (CCK-8), OCI-LY10; settings: Homo sapiens, OCI-Ly10, 72 h, read-out: Tumor cell proliferation inhibitory activity (IC50, nM) OCI-LY10
BTK Kinase = BTK Kinase (Homo sapiens (Human), UniProt Q06187); experiment: In-vitro Btk kinase inhibitory activity assay; assay type: biochemical
Description: In-Vitro Btk Kinase Inhibitory Activity Assay for Compounds of the Present Invention:
10 μL of the 50× drug stock solution was added to a 96-well plate and then 90 μL of a 1× Kinase Buffer was added and the 96-well plate was shaken for 10 minutes on a shaker. From each well of the 96-well plate, 5 μL of the drug solution was taken and then transferred to a 384-well plate which was provided with 2 duplicate wells.
Preparation of a 2.5× Kinase Buffer: an enzyme was added to the 1× kinase base buffer.
Prepare a 2.5× oligopeptide solution: FAM-labeled oligopeptide and ATP were added to the 1× kinase base buffer.
10 μL of the 2.5× Kinase Buffer was added to the 384-well plate loaded with 5 μL of the drug solution and incubation was then carried out for 10 minutes at room temperature. 10 μL of the 2.5× oligopeptide solution was added to the 384-well plate and incubation was then carried out for 1 hour at 28° C. The reaction was stopped by adding 25 μL of a stop buffer. The readings were recorded and the inhibition rate of the compound on the enzyme was calculated. The IC50 of BTK kinase was calculated by fitting.

[4] = test system: human diffuse large B lymphoma (TMD-8); experiment: In-vitro tumor cell proliferation inhibition (CCK-8), TMD-8; settings: TMD8, 72 h, read-out: Tumor cell proliferation inhibitory activity (IC50, nM) TMD-8
hERG potassium channel = hERG potassium channel (Homo sapiens (Human), UniProt Q12809); experiment: hERG potassium channel inhibitory activity, manual patch clamp in CHO cells; assay type: cell-based; settings: CHO cells stably expressing hERG, whole-cell patch clamp
Description: The cells used in this experiment were CHO cell lines transfected with HergCdna and stably expressing Herg channels (supplied by Sophion Bioscience, Denmark). The cells were cultured in a medium containing the following components (all from Invitrogen): Ham's F12 medium, 10% (v/v) inactivated fetal bovine serum, 100 μg/ml hygromycin B, 100 μg/ml Geneticin. […] 24 to 48 hours before an electrophysiological experiment, CHO Herg cells were transferred to circular slides placed in the culture dishes and grow with the same culture liquid under the same culture conditions as above. The density of CHO Herg cells on each circular slide was required to reach such a value that most cells were independent and stand alone.
2. Treatment and Dilution of a Compound
Before the test, the compound was first diluted with DMSO at gradient to make stock solutions with concentrations of 10, 3, 1, 0.3 and 0.1 Mm and the stock solutions were then diluted with extracellular fluid to a final Mm test concentration. Except that the DMSO concentration in the 30 Mm compound test solution was 0.3%, the final concentration of DMSO in each of the compound solutions with other concentrations was 0.1%. The test concentration of a positive control Cisapridewas 0.1 Mm. All compound solutions were conventionally sonicated and shaken for 5 to 10 minutes to ensure complete dissolution of the compound.
3. Electrophysiological Recording System and Data Analysis
This experiment uses a manual patch clamp system (HEKA EPC-10 signal amplifier and digital conversion system, purchased from HEKA Electronics, Germany) for the recording of whole cell currents. The circular slides with CHO Herg cells growing on the surfaces were placed in an electrophysiological recording slot under an inverted microscope. The extracellular fluid was used for continuous perfusion in the recording slot (approximately lml per minute). The experimental procedure uses a conventional whole-cell patch clamp current recording technique. Unless otherwise stated, the experiment was carried out at regular room temperature ([…]). The cells were clamped at a voltage of −80 Mv. The cell clamp voltage was depolarized to +20 Mv to activate the Herg potassium channel, and 5 seconds later, it was clamped to −50 Mv to eliminate inactivation and generate tail current. The peak of the tail current was used as the value of the Herg current. After the hERG potassium current recorded in the above step was stabilized under the continuous extracellular fluid perfusion in the recording slot, the drug to be tested can be superimposed to the perfusion until the inhibitory effect of the drug on the hERG current reaches a steady state. Generally, the criterion for determine whether or not the stable state was reached was that the recent three consecutive current recording lines were coincident. After the steady state was reached, extracellular fluid perfusion was carried out for flushing until the hERG current returns to the magnitude before the drug was added. One cell may be used for testing one or more drugs, or multiple concentrations of the same drug, and flushing with extracellular fluid was carried out between tests of different drugs. Cisapride (purchased from Sigma) was used in the experiment as a positive control to ensure that the cells used were of normal quality. The test data was analyzed by data analysis software provided by HEKA Patchmaster, Microsoft Excel and Graphpad Prism.

[5] = Oral pharmacokinetic experiment in SD rats; assay type: in vivo
Description: SD rats were used as experimental animals and were subjected to intragastric administration in a dose of 10 mg/kg and tail-vein intravenous injection in a dose of 2 mg/kg. The tail-vein blood sampling time points in the intragastric administration were 0.17, 0.33, 0.5, 1, 1.5, 2, 4, 6, 8, 12, and 24 hours; the blood sampling time points in the intravenous administration were 0.05, 0.1, 0.17, 0.5, 1, 2, 4, 6, 8, 12, and 24 hours. 0.3 ml of whole blood was taken, and 0.1 ml of plasma after centrifugation was taken and analyzed by LC-MS.

[6] = oral (intragastric) 10 mg/kg, mean n = 3

Chain of BTK Kinase (Q06187 whole entry): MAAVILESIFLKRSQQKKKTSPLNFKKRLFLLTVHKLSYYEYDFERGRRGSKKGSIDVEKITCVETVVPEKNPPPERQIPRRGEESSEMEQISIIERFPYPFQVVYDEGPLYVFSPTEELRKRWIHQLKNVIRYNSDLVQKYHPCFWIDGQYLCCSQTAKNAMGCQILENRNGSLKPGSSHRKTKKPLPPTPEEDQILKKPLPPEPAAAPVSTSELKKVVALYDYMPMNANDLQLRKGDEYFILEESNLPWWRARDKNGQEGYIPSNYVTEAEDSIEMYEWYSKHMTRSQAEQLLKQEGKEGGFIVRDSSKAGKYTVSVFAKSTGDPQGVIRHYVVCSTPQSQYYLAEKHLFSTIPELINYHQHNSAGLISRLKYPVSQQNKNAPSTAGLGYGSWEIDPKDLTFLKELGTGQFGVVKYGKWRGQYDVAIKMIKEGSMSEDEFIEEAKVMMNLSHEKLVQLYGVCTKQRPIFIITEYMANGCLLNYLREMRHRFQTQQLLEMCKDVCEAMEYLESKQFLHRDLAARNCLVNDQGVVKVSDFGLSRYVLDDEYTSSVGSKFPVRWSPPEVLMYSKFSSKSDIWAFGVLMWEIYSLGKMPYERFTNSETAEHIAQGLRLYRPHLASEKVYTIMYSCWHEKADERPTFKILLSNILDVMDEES
Chain of hERG potassium channel (Q12809 whole entry): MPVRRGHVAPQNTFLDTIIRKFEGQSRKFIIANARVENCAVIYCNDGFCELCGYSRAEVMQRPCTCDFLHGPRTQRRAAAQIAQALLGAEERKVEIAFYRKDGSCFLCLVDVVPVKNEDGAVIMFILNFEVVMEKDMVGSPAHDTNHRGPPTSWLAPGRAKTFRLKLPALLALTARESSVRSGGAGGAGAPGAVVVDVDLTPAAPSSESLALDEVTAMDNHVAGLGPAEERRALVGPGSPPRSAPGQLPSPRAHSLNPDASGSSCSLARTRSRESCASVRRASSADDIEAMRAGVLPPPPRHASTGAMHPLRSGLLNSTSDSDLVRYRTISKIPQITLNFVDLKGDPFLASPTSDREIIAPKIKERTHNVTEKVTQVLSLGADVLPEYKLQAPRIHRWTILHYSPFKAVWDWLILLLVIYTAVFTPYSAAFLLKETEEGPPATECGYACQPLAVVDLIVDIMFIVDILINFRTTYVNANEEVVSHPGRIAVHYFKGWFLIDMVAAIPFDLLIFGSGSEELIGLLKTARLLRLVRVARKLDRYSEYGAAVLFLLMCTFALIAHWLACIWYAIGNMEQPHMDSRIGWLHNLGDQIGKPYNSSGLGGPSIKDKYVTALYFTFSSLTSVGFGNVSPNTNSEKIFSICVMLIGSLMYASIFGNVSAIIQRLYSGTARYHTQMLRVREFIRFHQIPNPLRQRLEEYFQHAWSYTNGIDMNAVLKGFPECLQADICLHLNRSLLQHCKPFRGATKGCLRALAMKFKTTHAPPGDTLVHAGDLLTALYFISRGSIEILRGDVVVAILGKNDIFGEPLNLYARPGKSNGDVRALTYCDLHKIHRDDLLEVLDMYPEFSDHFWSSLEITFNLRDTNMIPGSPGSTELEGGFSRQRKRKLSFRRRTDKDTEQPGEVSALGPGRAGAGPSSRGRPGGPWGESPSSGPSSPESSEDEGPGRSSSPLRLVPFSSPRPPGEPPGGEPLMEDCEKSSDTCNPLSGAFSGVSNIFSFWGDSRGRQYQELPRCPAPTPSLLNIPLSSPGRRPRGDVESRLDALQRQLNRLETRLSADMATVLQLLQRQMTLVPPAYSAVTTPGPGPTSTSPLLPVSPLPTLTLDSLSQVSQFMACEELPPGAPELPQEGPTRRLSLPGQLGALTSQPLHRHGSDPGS

IC50 [1]: 6.23 µM
IC50 [2]: 2.06 µM
IC50 [3]: 2.23 nM
IC50 (BTK Kinase): 8.6 nM
IC50 [4]: 4.12 nM
Compound: C=CC(=O)N1CCC[C@@H](n2nc(-c3ccc(Oc4cccc(F)c4)nc3)c3c(N)ncnc32)C1 [Compound 15c, (R)-1-(3-(4-amino-3-(6-(3-fluorophenoxypyridine)-3-yl)-1H-pyrazolo[3,4-d]pyrimidin-1-yl)piperidin-1-yl)prop-2-en-1-one]

IC50 [1]: 9.15 µM
IC50 [2]: 5.12 µM
IC50 [3]: 5.12 nM
IC50 (BTK Kinase): 7.5 nM
IC50 [4]: 3.83 nM
Compound: C=CC(=O)N1CCC[C@@H](n2nc(-c3ccc(Oc4ccccc4F)nc3)c3c(N)ncnc32)C1 [Compound 15d, (R)-1-(3-(4-amino-3-(6-(2-fluorophenoxypyridine)-3-yl)-1H-pyrazolo[3,4-d]pyrimidin-1-yl)piperidin-1-yl)prop-2-en-1-one]

IC50 (BTK Kinase): 10.5 nM
Compound: C=CC(=O)N1CCC[C@@H](n2nc(-c3ccc(Oc4ccc(Cl)cc4)nc3)c3c(N)ncnc32)C1 [Compound 15e, (R)-1-(3-(4-amino-3-(6-(4-chlorophenoxypyridine)-3-yl)-1H-pyrazolo[3,4-d]pyrimidin-1-yl)piperidin-1-yl)prop-2-en-1-one]

IC50 (BTK Kinase): 25.3 nM
Compound: C=CC(=O)N1CCC[C@@H](n2nc(-c3ccc(Oc4ccc(F)c(F)c4)nc3)c3c(N)ncnc32)C1 [Compound 15f, (R)-1-(3-(4-amino-3-(6-(3,4-difluorophenoxypyridine)-3-yl)-1H-pyrazolo[3,4-d]pyrimidin-1-yl)piperidin-1-yl)prop-2-en-1-one]

IC50 (BTK Kinase): 7.8 nM
Compound: C=CC(=O)N1CCC[C@@H](n2nc(-c3ccc(Oc4c(F)cccc4F)nc3)c3c(N)ncnc32)C1 [Compound 15g, (R)-1-(3-(4-amino-3-(6-(2,6-difluorophenoxypyridine)-3-yl)-1H-pyrazolo[3,4-d]pyrimidin-1-yl)piperidin-1-yl)prop-2-en-1-one]

IC50 (BTK Kinase): 3.2 nM
Compound: C=CC(=O)N1CCC[C@@H](n2nc(-c3ccc(Oc4cccc(F)c4F)nc3)c3c(N)ncnc32)C1 [Compound 15h, (R)-1-(3-(4-amino-3-(6-(2,3-difluorophenoxypyridine)-3-yl)-1H-pyrazolo[3,4-d]pyrimidin-1-yl)piperidin-1-yl)prop-2-en-1-one]

IC50 (BTK Kinase): 32.5 nM
Compound: C=CC(=O)N1CCC[C@@H](n2nc(-c3ccc(Oc4ccc(OC)cc4)nc3)c3c(N)ncnc32)C1 [Compound 15j]
IC50 (hERG potassium channel): 17500 nM

IC50 (BTK Kinase): 18.2 nM
Compound: C=CC(=O)N1CCC[C@@H](n2nc(-c3ccc(Oc4ccc(C(F)(F)F)cc4)nc3)c3c(N)ncnc32)C1 [Compound 15k, (R)-1-(3-(4-amino-3-(6-(4-trifluoromethylphenoxypyridine)-3-yl)-1H-pyrazolo[3,4-d]pyrimidin-1-yl)piperidin-1-yl)prop-2-en-1-one]

IC50 (BTK Kinase): 8.9 nM
Compound: C=CC(=O)N1CCC[C@@H](n2nc(-c3cnc(Oc4ccccc4)cc3F)c3c(N)ncnc32)C1 [Compound 16a, (R)-1-(3-(4-amino-3-(4-fluoro-6-phenoxypyridin-3-yl)-1H-pyrazolo[3,4-d]pyrimidin-1-yl)piperidin-1-yl)prop-2-en-1-one]
IC50 (hERG potassium channel): 6900 nM

IC50 (BTK Kinase): 8.6 nM
Compound: C=CC(=O)N1CCC[C@@H](n2nc(-c3cnc(Oc4ccccc4)c(F)c3)c3c(N)ncnc32)C1 [Compound 16b, (R)-1-(3-(4-amino-3-(5-fluoro-6-phenoxypyridin-3-yl)-1H-pyrazolo[3,4-d]pyrimidin-1-yl)piperidin-1-yl)prop-2-en-1-one]

IC50 (BTK Kinase): 6.6 nM
Compound: C=CC(=O)N1CCC[C@@H](n2nc(-c3cnc(Oc4ccccc4)cc3C)c3c(N)ncnc32)C1 [Compound 16c, (R)-1-(3-(4-amino-3-(4-methyl-6-phenoxypyridin-3-yl)-1H-pyrazolo[3,4-d]pyrimidin-1-yl)piperidin-1-yl)prop-2-en-1-one]

IC50 (BTK Kinase): 7.2 nM
Compound: C=CC(=O)N1CCC[C@@H](n2nc(-c3ccc(Oc4ccccc4)nc3C)c3c(N)ncnc32)C1 [Compound 16d, (R)-1-(3-(4-amino-3-(2-methyl-6-phenoxypyridin-3-yl)-1H-pyrazolo[3,4-d]pyrimidin-1-yl)piperidin-1-yl)prop-2-en-1-one]

Compound: Nc1ncnc2c1c(-c1ccc(Oc3ccccc3)nc1)nn2[C@@H]1CCCN(C(=O)C#CCCO)C1 [Compound 21c, (R)-1-(3-(4-amino-3-(6-phenoxypyridin-3-yl)-1H-pyrazolo[3,4-d]pyrimidin-1-yl)piperidin-1-yl)-5-hydroxypent-2-yn-1-one]
IC50 (hERG potassium channel): 25200 nM

IC50 (BTK Kinase): 9.6 nM
Compound: C=CC(=O)N1CC[C@@H](n2nc(-c3ccc(Oc4ccccc4F)nc3)c3c(N)ncnc32)C1 [Compound 23b, (R)-1-(3-(4-amino-3-(6-(2-fluorophenoxy)pyridin-3-yl)-1H-pyrazolo[3,4-d]pyrimidin-1-yl)pyrrolidin-1-yl)prop-2-en-1-one]

IC50 (BTK Kinase): 9.7 nM
Compound: C=CC(=O)N1CC[C@@H](n2nc(-c3ccc(Oc4c(F)cccc4F)nc3)c3c(N)ncnc32)C1 [Compound 23c, (R)-1-(3-(4-amino-3-(6-(2,6-difluorophenoxy)pyridin-3-yl)-1H-pyrazolo[3,4-d]pyrimidin-1-yl)pyrrolidin-1-yl)prop-2-en-1-one]

IC50 (BTK Kinase): 7.4 nM
Compound: C=CC(=O)N1CC[C@@H](n2nc(-c3ccc(Oc4cccc(F)c4F)nc3)c3c(N)ncnc32)C1 [Compound 23d, (R)-1-(3-(4-amino-3-(6-(2,3-difluorophenoxy)pyridin-3-yl)-1H-pyrazolo[3,4-d]pyrimidin-1-yl)pyrrolidin-1-yl)prop-2-en-1-one]

oral bioavailability relative to ibrutinib ([5]; oral 10 mg/kg): 3.69 times
Compound: C=CC(=O)N1CC[C@H](n2nc(-c3ccc(Oc4ccccc4)nc3F)c3c(N)ncnc32)C1 [Compound 24b, (S)-1-(3-(4-amino-3-(2-fluoro-6-phenoxypyridin-3-yl)-1H-pyrazolo[3,4-d]pyrimidin-1-yl)pyrrolidin-1-yl)prop-2-en-1-one]

AUC0-C(ng/h/mL) [5, 6]: 550 ng·h/mL
AUC0-t (ng/h/mL) [5, 6]: 544 ng·h/mL
bioavailability ([5]; rat, plasma, oral 10 mg/kg vs intravenous 2 mg/kg, mean n = 3): 12.5%
Cmax ([5]; rat, plasma, oral (intragastric) 10 mg/kg, mean n = 3): 254 ng/mL
Compound: C=CC(=O)N1CCC[C@@H](n2nc(-c3ccc(Oc4ccccc4)cc3)c3c(N)ncnc32)C1 [Ibrutinib, reference compound]
